Our source for the IC50 values is patent US8962810B2, “Macrocyclic heterocyclic compound for inhibiting hepatitis C virus and preparation and use thereof” (AB Pharma Ltd., priority 2011, dated 2015).

The target in this assay is T1, HCV Protease (HCV NS3-4A) (Hepatitis C virus genotype 1a, UniProt P27958).
T1 construct: HCV Protease: HCV NS3-4A, self-prepared; made in house
T1 sequence (P27958 1658-1711): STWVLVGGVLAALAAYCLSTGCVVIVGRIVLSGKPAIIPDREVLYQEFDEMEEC
T1 sequence (P27958 1027-1657): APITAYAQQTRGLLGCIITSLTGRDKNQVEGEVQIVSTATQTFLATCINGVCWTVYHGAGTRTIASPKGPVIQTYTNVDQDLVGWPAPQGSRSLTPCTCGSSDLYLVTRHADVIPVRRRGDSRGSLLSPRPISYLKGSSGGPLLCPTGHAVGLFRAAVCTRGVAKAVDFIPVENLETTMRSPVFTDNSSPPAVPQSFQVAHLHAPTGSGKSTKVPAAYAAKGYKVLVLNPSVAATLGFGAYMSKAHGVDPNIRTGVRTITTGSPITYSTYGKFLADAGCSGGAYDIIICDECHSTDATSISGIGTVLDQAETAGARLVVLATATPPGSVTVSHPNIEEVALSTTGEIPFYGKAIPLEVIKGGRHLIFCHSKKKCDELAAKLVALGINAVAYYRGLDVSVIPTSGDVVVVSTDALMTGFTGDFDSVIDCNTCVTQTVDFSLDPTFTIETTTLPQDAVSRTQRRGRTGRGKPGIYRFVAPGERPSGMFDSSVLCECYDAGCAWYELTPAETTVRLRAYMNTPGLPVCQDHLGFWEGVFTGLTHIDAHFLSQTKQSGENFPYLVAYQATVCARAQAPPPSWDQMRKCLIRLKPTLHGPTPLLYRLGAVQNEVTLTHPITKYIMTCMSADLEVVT
Kind of assay: HCV Protease (HCV NS3-4A) anti-activity assay, fluorescence quenching (FRET). Format: biochemical. As to the method:
Method of HCV Protease (HCV NS3-4A) Anti-Activity Assay:
HCV Protease (HCV NS3/4A) anti-activity was measured by an inter fluorescence quenching system. EDANS group and DABCYL group were bonded on each side of a peptide. When protein cleavage started, fluorescence quenching of EDANS by DABCYL was detected. We used a high throughput screening model for HCV NS3/4A protease inhibitors, the tested drugs were prepared with 5 different concentrations, positive control and negative control were set in the same time. In the optimized reaction system, fluorescence were determined at ex=355, em=520 by a Polarstar fluorescence detector. Calculate the inhibition rate of each concentration; calculate the half maximal inhibitory concentration (IC50) with the method of Reed-Muench.
Materials: HCV Protease: HCV NS3-4A, self-prepared, stored at −70. HCV Protease substrate (FRET-S): Ac-Asp-Glu-Asp(EDANS)-Glu-Glu-Abu-ψ-[COO]-Ala-Ser-Lys-(DABCYL)-NH2, supplied by AnaSpec USA, prepared of 100 μM by DMSO, distributed and stored at −20 without light. Buffer solution: 30 mM NaCl, 5 mM CaCl2, 10 mM DTT, 50 mM Tris (pH7.8).
Instrument: fluorescence detector Polarstar from Germany Company BMG
Preparation and operation: preparation of 10 mg/mL by DMSO, dilute of 10000, 2000, 400, 80, 16 ng/mL as tested concentrations by buffer solutions, adding 20 μL into each well, the total reaction system is 200 μL, to make the final concentrations of 1000, 200, 40, 8, 1.6 ng/mL. Add 140 μL buffer solution, 20 μL drug solution, 20 μL HCV protease, and 20 μL FRET-S substrate with final concentration of 0.25 μM into 96-well fluorescence microtiterplate, the reaction started at 37, set control wells of protease-substrate reaction and of isolate substrate and isolate protease, fluorescence signals were detected by fluorescence detector (ex=355,em=520). Calculate the inhibition rates of samples for each concentration by comparison of fluorescence value of sample in each well and the fluorescence control value of enzyme, calculate the half maximal inhibitory concentration (IC50) of samples to HCV protease with the method of Reed-Muench.
THF and Et2O were distilled from sodium metal and benzophenone. DCM, pentane and hexane were distilled form calcium hydride. Special raw materials and intermediates in the invention were supplied by Zannan SciTech Co. for ordered processing, Ltd. in Shanghai, others reagents were purchased from Shanghai reagent company, Aldrich, Acros etc. If intermediates or products of synthesis were not enough for the next step of reaction, the synthesis shall be repeated until it is sufficient. The HCV protease (HCV NS3-4A) inhibitory activity assays in the present invention were performed by relevant cooperation service units of China Institutes for Biological Science in Beijing.
The molecule `CC[C@H]1C[C@@]1(NC(=O)C1C[C@@H]2CN1C(=O)[C@H](C(C)(C)C)NC(=O)OCC(C)(C)CCCCCOc1ccc3c(c1)CN(C3)C(=O)O2)C(=O)NS(=O)(=O)C1CC1` (some centres unmarked) [Compound 15bp] displayed an IC50 of 0.1 to 5 nM.

Molecule `CC[C@H]1C[C@@]1(NC(=O)C1C[C@@H]2CN1C(=O)[C@H](C(C)(C)C)NC(=O)OCCCCCCOC(=O)c1ccc3c(c1)CN(C3)C(=O)O2)C(=O)NS(=O)(=O)C1CC1` (some centres unmarked) [Compound 15bq] came in with a 50% inhibitory concentration (IC50) of 51 to 300 nM.

As for `CC[C@H]1C[C@@]1(NC(=O)C1C[C@@H]2CN1C(=O)[C@H](C(C)(C)C)NC(=O)OCC(C)(C)CCCCOC(=O)c1ccc3c(c1)CN(C3)C(=O)O2)C(=O)NS(=O)(=O)C1CC1` (some centres unmarked) [Compound 15br], the IC50 lay within 51 to 300 nM.

Molecule `CCC1CC1(NC(=O)C1CC2CN1C(=O)C(C(C)(C)C)NC(=O)OCC(C)(C)CCCCCOC(=O)c1ccc3c(c1)CN(C3)C(=O)O2)C(=O)NS(=O)(=O)C1CC1` (centres unmarked) [Compound 15bs] had a 50% inhibitory concentration (IC50) of 51 to 300 nM.

Regarding `C=CC1CC1(NC(=O)C1CC2CN1C(=O)C(C(C)(C)C)NC(=O)OCCCC=Cc1c3c(cc4c1OCO4)CN(C3)C(=O)O2)C(=O)NS(=O)(=O)C1CC1` (centres unmarked) [Compound 15bt], the IC50 is 0.1 to 5 nM.

Molecule `C=C[C@H]1C[C@@]1(NC(=O)C1C[C@@H]2CN1C(=O)[C@H](C(C)(C)C)NC(=O)OCCCC/C=C\c1c3c(cc4c1OCO4)CN(C3)C(=O)O2)C(=O)NS(=O)(=O)C1CC1` (some centres unmarked) [Compound 15bu] showed an IC50 of 0.1 to 5 nM.

Regarding `C=C[C@H]1C[C@@]1(NC(=O)C1C[C@@H]2CN1C(=O)[C@H](C(C)(C)C)NC(=O)OCC(C)(C)CC/C=C\c1c3c(cc4c1OCO4)CN(C3)C(=O)O2)C(=O)NS(=O)(=O)C1CC1` (some centres unmarked) [Compound 15bv], the IC50 is 0.1 to 5 nM.

Turning to `CC[C@H]1C[C@@]1(NC(=O)C1C[C@@H]2CN1C(=O)[C@H](C(C)(C)C)NC(=O)OCCCC/C=C\c1c3c(cc4c1OCO4)CN(C3)C(=O)O2)C(=O)NS(=O)(=O)C1CC1` (some centres unmarked) [Compound 15bw], the IC50 was 0.1 to 5 nM.

Take `CC[C@H]1C[C@@]1(NC(=O)C1C[C@@H]2CN1C(=O)[C@H](C(C)(C)C)NC(=O)OCCCCCCc1c3c(cc4c1OCO4)CN(C3)C(=O)O2)C(=O)NS(=O)(=O)C1CC1` (some centres unmarked) [Compound 15bx]: the IC50 lay within 0.1 to 5 nM.

In the case of `CC[C@H]1C[C@@]1(NC(=O)C1C[C@@H]2CN1C(=O)[C@H](C(C)(C)C)NC(=O)OCC(C)(C)CCCCc1c3c(cc4c1OCO4)CN(C3)C(=O)O2)C(=O)NS(=O)(=O)C1CC1` (some centres unmarked) [Compound 15by], the IC50 lay in the range of 0.1 to 5 nM.

Regarding `C=C[C@H]1C[C@@]1(NC(=O)C1C[C@@H]2CN1C(=O)[C@H](C(C)(C)C)NC(=O)OCC1(CC/C=C/COc3cccc4c3CN(C4)C(=O)O2)CC1)C(=O)NS(=O)(=O)C1CC1` (some centres unmarked) [Compound 15c], the IC50 lay in the range of 0.1 to 5 nM.

As for `CC[C@H]1C[C@@]1(NC(=O)C1C[C@@H]2CN1C(=O)[C@H](C(C)(C)C)NC(=O)OCC1(C/C=C/CSc3cccc4c3CN(C4)C(=O)O2)CC1)C(=O)NS(=O)(=O)C1CC1` (some centres unmarked) [Compound 15ca], the IC50 lay in the range of 0.1 to 5 nM.

Consider `CC[C@H]1C[C@@]1(NC(=O)C1C[C@@H]2CN1C(=O)[C@H](C(C)(C)C)NC(=O)OCC(C)(C)C/C=C/CSc1cccc3c1CN(C3)C(=O)O2)C(=O)NS(=O)(=O)C1CC1` (some centres unmarked) [Compound 15cb], for which the IC50 is 0.1 to 5 nM.

As to `CC[C@H]1C[C@@]1(NC(=O)C1C[C@@H]2CN1C(=O)[C@H](C(C)(C)C)NC(=O)OCCC/C=C/CSc1cccc3c1CN(C3)C(=O)O2)C(=O)NS(=O)(=O)C1CC1` (some centres unmarked) [Compound 15cc], the IC50 lay within 0.1 to 5 nM.

In turn, `CC[C@H]1C[C@@]1(NC(=O)C1C[C@@H]2CN1C(=O)[C@H](C(C)(C)C)NC(=O)OCC(C)(C)CCCCN(C)c1cccc3c1CN(C3)C(=O)O2)C(=O)NS(=O)(=O)C1CC1` (some centres unmarked) [Compound 15cd] returned a 50% inhibitory concentration (IC50) of 0.1 to 5 nM.

As to `C=C[C@H]1C[C@@]1(NC(=O)C1C[C@@H]2CN1C(=O)[C@H](C(C)(C)C)NC(=O)OCC1(CCCCCOc3cccc4c3CN(C4)C(=O)O2)CC1)C(=O)NS(=O)(=O)C1CC1` (some centres unmarked) [Compound 15d], the concentration for half-maximal inhibition (IC50) is 0.1 to 5 nM.

`CC[C@H]1C[C@@]1(NC(=O)C1C[C@@H]2CN1C(=O)[C@H](C(C)(C)C)NC(=O)OCC1(CCCCOc3cccc4c3CN(C4)C(=O)O2)CC1)C(=O)NS(=O)(=O)C1CC1` (some centres unmarked) [Compound 15e] had an IC50 of 0.1 to 5 nM.

Usually IC50 stands for the midpoint of a concentration-inhibition curve. The low end stands for higher potency, the high end for lower potency.
